From patent US11299472B2, “Fumarate salt of (R)-3-(1-(2,3-dichloro-4-(pyrazin-2-yl)phenyl)-2,2,2- trifluoroethyl)-1-methyl-1-(1-methylpiperidin-4-yl) urea, methods of preparation, and uses thereof” (Helsinn Healthcare SA, priority 2017, dated 2022)
Where two headings read alike, the source gives them in different places.

Key:
[1] = Dog pharmacokinetic study, single oral HM04 fumarate salt 3, 10, 30 mg/kg (Example 10); type: in vivo, male Beagle dogs; settings: for bioavailability / concentration at 0 h / concentration at 0.25 h / concentration at 0.5 h / concentration at 1 h / concentration at 2 h / concentration at 4 h / concentration at 8 h / concentration at 24 h / AUC(0-t) / Cmax / Tmax / half-life / AUC(0-inf): male, Beagle, plasma; for bioavailability: individual AUC∞ ratios; for concentration at 0.5 h: 0.50 hours
Description: (§1) The pharmacokinetics of HM04 in plasma after single oral administration of HM04 fumarate salt to 6-week old male Sprague Dawley rats and male Beagle dogs (1-5 years of age) was investigated. Test formulations of 0.6 mg/mL, 2 mg/mL, and 6 mg/mL HM04 fumarate salt (based on weight of the free base) were prepared in 5% glucose solution. Doses of 3, 10, and 30 mg/kg HM04 fumarate salt (based on weight of the free base) were administered by gastric gavage as a 5 mL/kg dose volume of each of the three test formulations. Four animals were in each dose group. The formulation was administered to the dogs in fasting conditions with food provided three hours post-dosing.
Oral absolute bioavailability at 3 mg/kg was calculated from the ratio of individual oral AUC∞ to the individual AUC∞ values determined following intravenous administration of 3 mg/kg HM04 fumarate salt (based on weight of the free base) to the same four male Beagle dogs.
Oral absolute bioavailability at 10 mg/kg was calculated from the ratio of individual oral AUC∞ to the individual AUC∞ values determined following intravenous administration of 10 mg/kg HM04 fumarate salt (based on weight of the free base) to the same four male Beagle dogs.
(§2) Plasma HM04 concentrations were measured by LC-MS/MS following protein precipitation in the 96-well plate format. At the time of analysis samples were thawed out at ambient temperature. Aliquots of 25 μL of rat or dog K3EDTA plasma were spiked with 300 μL of internal standard (25 ng/mL of HM04-d8 in acetonitrile). After gentle vortex mixing for 5 minutes and centrifugation at 2010 g for 15 minutes at 4° C., an aliquot of 100 μL of the organic phase was transferred into a fresh 96-well polypropylene plate, using a P3-Evolution robotic system (Perkin Elmer). Following dilution with 100 μL of […] ammonium formate pH 3.5, an aliquot of 10 μL was injected into the LC-MS/MS system.

[2] = Rat pharmacokinetic study, HM04 free base vs HM04 fumarate salt (Example 9); type: in vivo, male Sprague Dawley rats; settings: 3 mg/kg oral, mean ± S.D., n=3
Description: The pharmacokinetics of HM04 in plasma of male Sprague Dawley rats dosed with a single oral administration of 3 mg/kg HM04 (based on the weight of the free base) formulated in a solution of 10% DMAC, 6% Solutol, and 84% PBS using either the HM04 free base or HM04 fumarate salt were compared. Blood samples were withdrawn at set time intervals and plasma concentration of HM04 was measured by LC-MS/MS. A comparison of the plasma concentration of HM04 (ng/mL) over time in rats dosed orally with HM04 free base and HM04 fumarate salt is provided in FIG. 17.

[3] = Rat pharmacokinetic study, single oral HM04 fumarate salt 3, 10, 30 mg/kg (Example 10); type: in vivo, male Sprague Dawley rats; settings: for concentration at 0.5 h: 0.50 hours
Description: as §1
A comparison of the plasma concentration of HM04 (ng/mL) in rats over time is provided in FIG. 19 and a summary of the pharmacokinetic analysis is provided in Table 5, below. […] The standard deviation associated with the mean oral bioavailability was calculated according to the formula: SDq=[^2√{square root over ((my^2·SDx^2+mx^2−SDy^2))}]/my^2 where q=mean bioavailability; mx=oral dose-normalized mean AUC, and my=IV dose-normalized mean AUC.
as §2

[4] = oral dose range of 3 to 30 mg/kg
[5] = male, Sprague Dawley, plasma, 3 mg/kg oral, n=4
[6] = male, Sprague Dawley, plasma, 10 mg/kg oral, n=4
[7] = male, Sprague Dawley, plasma, 10 mg/kg oral, N = 3
[8] = male, Sprague Dawley, plasma, 30 mg/kg oral, n=4

## CN1CCC(N(C)C(=O)N[C@H](c2ccc(-c3cnccn3)c(Cl)c2Cl)C(F)(F)F)CC1.O=C(O)/C=C/C(=O)O [HM04 fumarate salt, (R)-3-(1-(2,3-dichloro-4-(pyrazin-2-yl)phenyl)-2,2,2-trifluoroethyl)-1-methyl-1-(1-methylpiperidin-4-yl)urea fumarate salt]
[1]
  clearance: low clearance
  oral bioavailability: high
[1]; 30 mg/kg oral, 0 hours (pre-dose), n=4, LLOQ 2.5 ng/mL
  HM04 plasma concentration: BLQ
[1]; 3 mg/kg oral vs 3 mg/kg intravenous
  bioavailability: 55.6 ± 18.8%
[1]; 3 mg/kg oral, 0 hours (pre-dose), n=4
  concentration at 0 h: 5.34 ± 3.83 ng/mL
[1]; 3 mg/kg oral, n=4
  concentration at 0.25 h: 66 ± 26.8 ng/mL
  concentration at 0.5 h: 360 ± 238 ng/mL
  concentration at 1 h: 300 ± 127 ng/mL
  concentration at 4 h: 185 ± 115 ng/mL
  concentration at 8 h: 95.6 ± 83.3 ng/mL
  concentration at 24 h: 8.83 ± 14.7 ng/mL
  AUC(0-t): 2160 ± 1720 ng·h/mL
  Cmax: 425 ± 222 ng/mL
  Tmax: 0.875 ± 0.25 h
[1]; 3 mg/kg oral, N = 3 (Dog 3 excluded as outlier)
  concentration at 2 h: 287 ± 158 ng/mL
[1]; 3 mg/kg oral, n=4, read-out: t1/2 (converted)
  half-life: 4.02 ± 1.21 h
[1]; 10 mg/kg oral vs 10 mg/kg intravenous
  bioavailability: 68 ± 10%
[1]; 10 mg/kg oral, 0 hours (pre-dose), n=4
  concentration at 0 h: 2.15 ± 4.3 ng/mL
[1]; 10 mg/kg oral, n=4
  concentration at 0.25 h: 307 ± 246 ng/mL
  concentration at 0.5 h: 862 ± 460 ng/mL
  concentration at 1 h: 1510 ± 435 ng/mL
  concentration at 2 h: 1170 ± 260 ng/mL
  concentration at 4 h: 789 ± 150 ng/mL
  concentration at 8 h: 468 ± 171 ng/mL
  concentration at 24 h: 65.1 ± 65.2 ng/mL
  AUC(0-t): 10900 ± 3500 ng·h/mL
  Cmax: 1510 ± 435 ng/mL
  Tmax: 1 h
[1]; 10 mg/kg oral, n=4, read-out: t1/2 (converted)
  half-life: 4.93 ± 1.31 h
[1]; 30 mg/kg oral, n=4
  concentration at 0.25 h: 1940 ± 1330 ng/mL
  concentration at 0.5 h: 3730 ± 1560 ng/mL
  concentration at 1 h: 5720 ± 1200 ng/mL
  concentration at 2 h: 5030 ± 710 ng/mL
  concentration at 4 h: 3780 ± 577 ng/mL
  concentration at 8 h: 2440 ± 176 ng/mL
  concentration at 24 h: 560 ± 147 ng/mL
  AUC(0-t): 54000 ± 6010 ng·h/mL
  Cmax: 5720 ± 1200 ng/mL
  Tmax: 1 h
[1]; 30 mg/kg oral, n=4, read-out: t1/2 (converted)
  half-life: 6.97 ± 0.613 h
[1]; intravenous, range, read-out: half-life after intravenous administration
  half-life: 4 to 5 h
[1]; iv, 3 mg/kg, Dog 1, 3 mg/kg intravenous, read-out: individual IV AUC∞
  AUC(0-inf): 6190 ng·h/mL
[1]; iv, 3 mg/kg, Dog 2, 3 mg/kg intravenous, read-out: individual IV AUC∞
  AUC(0-inf): 3100 ng·h/mL
[1]; iv, 3 mg/kg, Dog 3, 3 mg/kg intravenous, read-out: individual IV AUC∞
  AUC(0-inf): 3210 ng·h/mL
[1]; iv, 3 mg/kg, Dog 4, 3 mg/kg intravenous, read-out: individual IV AUC∞
  AUC(0-inf): 3070 ng·h/mL
[1]; iv, 10 mg/kg, Dog 1, 10 mg/kg intravenous, read-out: individual IV AUC∞
  AUC(0-inf): 22500 ng·h/mL
[1]; iv, 10 mg/kg, Dog 2, 10 mg/kg intravenous, read-out: individual IV AUC∞
  AUC(0-inf): 13200 ng·h/mL
[1]; iv, 10 mg/kg, Dog 3, 10 mg/kg intravenous, read-out: individual IV AUC∞
  AUC(0-inf): 15500 ng·h/mL
[1]; iv, 10 mg/kg, Dog 4, 10 mg/kg intravenous, read-out: individual IV AUC∞
  AUC(0-inf): 14900 ng·h/mL
[1]; oral 3 to 30 mg/kg, range, read-out: apparent terminal half-life
  half-life: 4 to 7 h
[1]; po, 3 mg/kg, Dog 1, 3 mg/kg oral, read-out: individual oral AUC∞
  AUC(0-inf): 4930 ng·h/mL
[1]; po, 3 mg/kg, Dog 2, 3 mg/kg oral, read-out: individual oral AUC∞
  AUC(0-inf): 1440 ng·h/mL
[1]; po, 3 mg/kg, Dog 3, 3 mg/kg oral, read-out: individual oral AUC∞
  AUC(0-inf): 1160 ng·h/mL
[1]; po, 3 mg/kg, Dog 4, 3 mg/kg oral, read-out: individual oral AUC∞
  AUC(0-inf): 1850 ng·h/mL
[1]; po, 10 mg/kg, Dog 1, 10 mg/kg oral, read-out: individual oral AUC∞
  AUC(0-inf): 17500 ng·h/mL
[1]; po, 10 mg/kg, Dog 2, 10 mg/kg oral, read-out: individual oral AUC∞
  AUC(0-inf): 8780 ng·h/mL
[1]; po, 10 mg/kg, Dog 3, 10 mg/kg oral, read-out: individual oral AUC∞
  AUC(0-inf): 8470 ng·h/mL
[1]; po, 10 mg/kg, Dog 4, 10 mg/kg oral, read-out: individual oral AUC∞
  AUC(0-inf): 10900 ng·h/mL
[1]; [4]
  AUC versus dose: increased more than in direct proportion with the dose
  Cmax versus dose: increased roughly proportionally with the dose
[1]; single oral administrations, post-dosing
  time to maximal concentrations of HM04: ≤ 1 h
[2]; 0.50 hours
  HM04 plasma concentration: 325.9 ± 187.8 ng/mL
[2]; 1 hour
  HM04 plasma concentration: 201.0 ± 38.7 ng/mL
[2]; 2 hours
  HM04 plasma concentration: 173.9 ± 12.2 ng/mL
[2]; 8 hours
  HM04 plasma concentration: 42.3 ± 2.5 ng/mL
[2]; male, Sprague Dawley, plasma
  AUC(0-t): 970 ± 147 ng·h/mL
  Tmax: 0.83 ± 0.29 h
[3]; 3 mg/kg oral, 24 hours, n=4, LLOQ 5.0 ng/mL
  HM04 plasma concentration: BLQ
[3]; male, Sprague Dawley, plasma, 3 mg/kg oral vs 3 mg/kg intravenous mean AUC
  bioavailability: 43.3 ± 10.5%
[3]; [5]
  concentration at 0.25 h: 34.7 ± 5.42 ng/mL
  concentration at 0.5 h: 64.2 ± 35 ng/mL
  concentration at 1 h: 82.4 ± 30.8 ng/mL
  concentration at 2 h: 150 ± 53.5 ng/mL
  concentration at 4 h: 116 ± 24 ng/mL
  concentration at 8 h: 47 ± 10.9 ng/mL
  AUC(0-t): 762 ± 164 ng·h/mL
  Cmax: 156 ± 47.3 ng/mL
  Tmax: 3 ± 1.15 h
[3]; male, Sprague Dawley, plasma, 3 mg/kg oral, N = 2
  half-life: 2.82 h
[3]; male, Sprague Dawley, plasma, 10 mg/kg intravenous, four rats, read-out: mean AUC following intravenous administration
  AUC: 6170 ± 1770 ng·h/mL
[3]; male, Sprague Dawley, plasma, 10 mg/kg oral vs 10 mg/kg intravenous mean AUC
  bioavailability: 54.4 ± 15.2%
[3]; [6]
  concentration at 0.25 h: 150 ± 28.5 ng/mL
  concentration at 0.5 h: 548 ± 603 ng/mL
  concentration at 1 h: 456 ± 100 ng/mL
  concentration at 2 h: 652 ± 62.1 ng/mL
  concentration at 4 h: 387 ± 134 ng/mL
  concentration at 8 h: 215 ± 97.3 ng/mL
  Cmax: 769 ± 458 ng/mL
  Tmax: 1.38 ± 0.75 h
[3]; male, Sprague Dawley, plasma, 10 mg/kg oral, 24 hours, N = 1, three of four animals below level of quantification
  concentration at 24 h: 8.73 ± 17.5 ng/mL
[3]; [7]
  AUC(0-t): 3360 ± 685 ng·h/mL
  half-life: 4.88 h
[3]; [8]
  concentration at 0.25 h: 950 ± 465 ng/mL
  concentration at 0.5 h: 1400 ± 961 ng/mL
  concentration at 1 h: 2290 ± 537 ng/mL
  concentration at 2 h: 2560 ± 530 ng/mL
  concentration at 4 h: 2120 ± 422 ng/mL
  concentration at 8 h: 1350 ± 179 ng/mL
  AUC(0-t): 26200 ± 3970 ng·h/mL
  Cmax: 2590 ± 524 ng/mL
  Tmax: 1.75 ± 0.5 h
  half-life: 2.65 ± 0.193 h
[3]; male, Sprague Dawley, plasma, 30 mg/kg oral, 24 hours, n=4
  concentration at 24 h: 14.6 ± 6.8 ng/mL
